This is an account of results in PubChem BioAssay AID256 (DTP/NCI, 2004).

Where “and” joins values, the source holds several entries; their conditions need not be identical. Equal values may be shown once. Toxic doses and inconclusive results are not listed.

The assay has as its system CD2F1 mice, L1210 leukemia ip, survival T/C. Briefly: NCI In Vivo Anticancer Drug Screen. Data for tumor model L1210 Leukemia (intraperitoneal) in CD2F1 (CDF1) mice. To be noted: endpoint: mean survival time, higher = longer survival. As for the experimental part: The antitumor activity of compounds was measured in mice bearing transplantable tumors. Survival or tumor size were measured and the results are expressed as the measurement made in the treated group (T) divided by the measurement made in the vehicle treated control group (C). The tumor model used in this assay is L1210 Leukemia (intraperitoneal) in CD2F1 (CDF1) mice

Setting [1] is: dose: 100.0 mg/kg/injection, schedule: Q01DX001 (ip), vehicle: saline with Tween-80.
The mark [2] stands for this setting: dose: 200.0 mg/kg/injection, schedule: Q01DX001 (ip), vehicle: saline with Tween-80.
Setting [3] is: dose: 400.0 mg/kg/injection, schedule: Q01DX001 (ip), vehicle: saline with Tween-80.
The mark [4] stands for this setting: dose: 200.0 mg/kg/injection, schedule: Q01DX009 (ip), vehicle: saline with Tween-80.
The mark [5] stands for this setting: dose: 400.0 mg/kg/injection, schedule: Q01DX009 (ip), vehicle: saline with Tween-80.
[6] abbreviates: dose: 100.0 mg/kg/injection, schedule: Q01DX009 (ip), vehicle: saline with Tween-80.
Where [7] appears, read: dose: 50.0 mg/kg/injection, schedule: Q01DX009 (ip), vehicle: saline with Tween-80.

For `O=C(Cc1ccccc1)NCc1ccccc1`, the T/C runs as follows: (dose: 6.25 mg/kg/injection, schedule: Q01DX001 (ip), vehicle: saline) 101 % of control; (dose: 12.5 mg/kg/injection, schedule: Q01DX001 (ip), vehicle: saline) 94 % of control; (dose: 25.0 mg/kg/injection, schedule: Q01DX001 (ip), vehicle: saline) 101 % of control.

With `Cc1nc(N)[nH]c(=O)c1[N+](=O)[O-]`, the T/C is 108 % of control (dose: 100.0 mg/kg/injection, schedule: Q04DX003 (ip), vehicle: other) and 113 % of control (dose: 200.0 mg/kg/injection, schedule: Q04DX003 (ip), vehicle: other).

For the compound `CN=C(NC)S(=O)O`, the T/C reads like this: (dose: 100.0 mg/kg/injection, schedule: Q01DX009 (ip), vehicle: saline) 97 % of control; (dose: 200.0 mg/kg/injection, schedule: Q01DX009 (ip), vehicle: saline) 97 % of control; (dose: 400.0 mg/kg/injection, schedule: Q01DX009 (ip), vehicle: saline) 101 % of control.

With `CN(Cc1cnc2nc(N)nc(N)c2n1)c1ccc(C(=O)NC(CCC(=O)NC(CC(=O)O)C(=O)O)C(=O)O)cc1` (configuration not stated), the T/C by setting is: (dose: 5.0 mg/kg/injection, schedule: Q01DX009 (ip), vehicle: sodium bicarbonate) 165 % of control; (dose: 10.0 mg/kg/injection, schedule: Q01DX009 (ip), vehicle: sodium bicarbonate) 151 % of control.

For the compound `Nc1ncnc2c1ncn2CCCCCO`, the T/C was 96 % of control under setting [1], 91 % of control under setting [2] and 91 % of control under setting [3].

`CCOC(=O)c1sc(=S)[nH]c1C`: the T/C was 89 % of control under setting [4] and 87 % of control under setting [5].

For `CCCCCCNC(=O)Nc1ccc(Cl)c(Cl)c1`, the T/C reads like this: (dose: 200.0 mg/kg/injection, schedule: Q04DX003 (ip), vehicle: saline with Tween-80) 92 % of control; (dose: 400.0 mg/kg/injection, schedule: Q04DX003 (ip), vehicle: saline with Tween-80) 93 % of control.

On to `CN(C)C(=O)c1cc2ccccc2n1C`, for which the T/C runs as follows: under setting [1], 97 % of control; under setting [2], 98 % of control; under setting [3], 94 % of control.

Turning to `COC(=O)C12C=CC(C1)n1c(=O)n(-c3ccccc3)c(=O)n12` (configuration not stated), the T/C under setting [6] was 98 % of control, the T/C under setting [4] was 104 % of control and the T/C under setting [5] was 96 % of control.

In the case of `C(=Nc1ccccc1)c1ccccc1C=Nc1ccccc1`, the T/C was 94 % of control under setting [6]; 100 % of control (dose: 100.0 mg/kg/injection, schedule: Q04DX003 (ip), vehicle: saline sonified); 92 % of control under setting [4]; 100 % of control (dose: 200.0 mg/kg/injection, schedule: Q04DX003 (ip), vehicle: saline sonified); 94 % of control under setting [5]; 102 % of control (dose: 400.0 mg/kg/injection, schedule: Q04DX003 (ip), vehicle: saline sonified).

On to `CCOC(=O)c1c(C)c2c(n1C)CC/C(=C\N1CCCCC1)C2=O`, for which the T/C is 111 % of control (dose: 100.0 mg/kg/injection, schedule: Q04DX002 (ip), vehicle: saline with Tween-80); 118 % of control (dose: 200.0 mg/kg/injection, schedule: Q04DX002 (ip), vehicle: saline with Tween-80); 96 % of control (dose: 400.0 mg/kg/injection, schedule: Q04DX002 (ip), vehicle: saline with Tween-80).

Take `Clc1ccc(COCc2ccccc2Cn2ccnc2)cc1`: the T/C (dose: 25.0 mg/kg/injection, schedule: Q01DX009 (ip), vehicle: saline with Tween-80) was 98 % of control; the T/C under setting [7] was 104 % of control; the T/C under setting [6] was 96 % of control and 105 % of control.

As to `COc1cc(OC)c(NC(=O)Nc2ccc(N(C)C(C)=O)cc2)cc1Cl`, the T/C reads like this: under setting [7], 88 % of control; under setting [6], 88 % of control; under setting [4], 88 % of control.

For the compound `CNC(=O)OCc1c(COC(=O)NC)c(C)n(-c2ccc(OC)cc2)c1C`, the T/C is 101 % of control and 106 % of control (dose: 3.12 mg/kg/injection, schedule: Q01DX009 (ip), vehicle: Klucel (hydroxypropylcellulose) (HPC)); 101 % of control and 106 % of control (dose: 6.25 mg/kg/injection, schedule: Q01DX009 (ip), vehicle: Klucel (hydroxypropylcellulose) (HPC)); 113 % of control and 102 % of control (dose: 12.5 mg/kg/injection, schedule: Q01DX009 (ip), vehicle: Klucel (hydroxypropylcellulose) (HPC)); 121 % of control and 98 % of control (dose: 25.0 mg/kg/injection, schedule: Q01DX009 (ip), vehicle: Klucel (hydroxypropylcellulose) (HPC)); 116 % of control and 121 % of control (dose: 50.0 mg/kg/injection, schedule: Q01DX009 (ip), vehicle: Klucel (hydroxypropylcellulose) (HPC)); 87 % of control (dose: 100.0 mg/kg/injection, schedule: Q01DX009 (ip), vehicle: Klucel (hydroxypropylcellulose) (HPC)).

With `CN1C(=O)/C(=C/c2cccs2)SC1=S`, the T/C is, setting by setting: (dose: 100.0 mg/kg/injection, schedule: Q01DX001 (ip), vehicle: saline) 95 % of control; (dose: 200.0 mg/kg/injection, schedule: Q01DX001 (ip), vehicle: saline) 98 % of control; (dose: 400.0 mg/kg/injection, schedule: Q01DX001 (ip), vehicle: saline) 103 % of control.

In the case of `S=C([S-])N1CCCCC1.S=C([S-])N1CCCCC1.[Zn]`, the T/C is, setting by setting: (dose: 18.8 mg/kg/injection, schedule: Q01DX009 (ip), vehicle: saline) 93 % of control; (dose: 37.5 mg/kg/injection, schedule: Q01DX009 (ip), vehicle: saline) 90 % of control.

On to `COC1OC(COC(c2ccccc2)(c2ccccc2)c2ccccc2)C(OC(C)=O)C1OC(C)=O` (configuration not stated), for which the T/C was 109 % of control (dose: 100.0 mg/kg/injection, schedule: Q04DX003 (ip), vehicle: Klucel (hydroxypropylcellulose) (HPC)); 89 % of control (dose: 200.0 mg/kg/injection, schedule: Q04DX003 (ip), vehicle: Klucel (hydroxypropylcellulose) (HPC)); 89 % of control (dose: 400.0 mg/kg/injection, schedule: Q04DX003 (ip), vehicle: Klucel (hydroxypropylcellulose) (HPC)).

As to `CCOC(=O)CC1=Cc2c(OC)ccc(OC)c2CC1`, the T/C is, setting by setting: (dose: 12.5 mg/kg/injection, schedule: Q01DX009 (ip), vehicle: other) 95 % of control; (dose: 25.0 mg/kg/injection, schedule: Q01DX009 (ip), vehicle: other) 106 % of control; (dose: 50.0 mg/kg/injection, schedule: Q01DX009 (ip), vehicle: other) 98 % of control; (dose: 100.0 mg/kg/injection, schedule: Q01DX009 (ip), vehicle: other) 92 % of control; (dose: 200.0 mg/kg/injection, schedule: Q01DX009 (ip), vehicle: other) 88 % of control.

As to `Cc1ccc(S(=O)(=O)Nc2ccccc2SSc2ccccc2NS(=O)(=O)c2ccc(C)cc2)cc1`, the T/C by setting is: (dose: 100.0 mg/kg/injection, schedule: Q01DX001 (ip), vehicle: Klucel (hydroxypropylcellulose) (HPC)) 96 % of control; (dose: 200.0 mg/kg/injection, schedule: Q01DX001 (ip), vehicle: Klucel (hydroxypropylcellulose) (HPC)) 96 % of control; (dose: 400.0 mg/kg/injection, schedule: Q01DX001 (ip), vehicle: Klucel (hydroxypropylcellulose) (HPC)) 90 % of control.

In the case of `O=S(=O)(O)c1ccccc1.O=S(=O)(O)c1ccccc1.[NH-]C1CCCCC1[NH-].[Pt+2]`, the T/C reads like this: (dose: 1.0 mg/kg/injection, schedule: Q01DX009 (ip), vehicle: dextrose) 220 % of control; (dose: 1.0 mg/kg/injection, schedule: Q04DX003 (ip), vehicle: other) 170 % of control; (dose: 2.0 mg/kg/injection, schedule: Q04DX003 (ip), vehicle: other) 218 % of control; (dose: 4.0 mg/kg/injection, schedule: Q01DX001 (ip), vehicle: dextrose) 155 % of control; (dose: 4.0 mg/kg/injection, schedule: Q04DX003 (ip), vehicle: dextrose) 221 % of control; (dose: 6.0 mg/kg/injection, schedule: Q04DX003 (ip), vehicle: dextrose) 200 % of control. The T/C is 119 % of control (dose: 6.0 mg/kg/injection, schedule: Q04DX003 (ip), vehicle: other); 155 % of control (dose: 8.0 mg/kg/injection, schedule: Q01DX001 (ip), vehicle: dextrose); 191 % of control (dose: 8.0 mg/kg/injection, schedule: Q04DX003 (ip), vehicle: dextrose); 196 % of control (dose: 12.0 mg/kg/injection, schedule: Q01DX001 (ip), vehicle: dextrose); 152 % of control and 303 % of control (dose: 16.0 mg/kg/injection, schedule: Q01DX001 (ip), vehicle: dextrose); 262 % of control (dose: 24.0 mg/kg/injection, schedule: Q01DX001 (ip), vehicle: dextrose).
